Test results as given in patent US20230271949A1, “GLP-1R MODULATING COMPOUNDS” (ASCLETIS BIOSCIENCE CO., LTD., priority 2022, published 2023).
pEC50, pIC50, pKi: −log10 of the molar value.

Assays:
GLP-1R [1] = biological target: T1, GLP-1R (Homo sapiens, UniProt P43220); test: GLP-1R agonist cAMP stimulation assay (HTRF cAMP); type: cell-based; details: HEK293 cell line expressing GLP-1 target; HTRF cAMP agonist mode, 30 min at RT
How it was run: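 Read-out was HTRF (665/615 ratio), interpolated onto a cAMP standard curve and normalised to DMSO (0%) and maximal GLP-1(7-37) reference (100%) wells. Assay: GLP-1R cells at 1.0×E5/mL incubated with compound dilution series (3-fold, 10 points) for 30 min at room temperature before 60 min detection.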

GLP-1R [2] = biological target: T1, GLP-1R; test: Tag-lite binding assay (competition with GLP-1 receptors red agonist); details: for pIC50: HEK293 GLP-1 cells labeled with SNAP-Lumi4-Tb, red agonist 4.917 nM, 23° C., 2 h; for pKi: calculated from sample IC50 and red agonist Kd
Procedure: B. Tag-Lite Binding Assay
The cell line was constructed by WuXi.
10) Dispense cells into cell plate (1.8 M cells/well in 2 ml medium of 6-well plate, total 4 wells).
Second Day: Tag-Lite Binding Assay
3) The cell culture medium is removed from the 6-well plate and then 1 mL of Tag-lite SNAP-Lumi4-Tb diluted in Tag-lite labeling medium are added gently on the cells.
7) The testing compounds and reference compound are serially diluted with 3-fold, 10 points using Echo, then transfer 100 nL compounds to the assay plate.
8) Add the labeled cells to each well according to the plate map, 10000 cells/10 uL/well. Centrifuge the plate at 1000 rpm for 1 min.
9) Incubate the plate at 23° C., 30 min.
10) Add 50 nL of red agonist (final conc.: 4.917 nM) to destination plate using Echo.
11) Incubate the plate at 23° C. for 2 h.
12) Read the plate on an HTRF® compatible reader (at 665 nm and 620 nm).
% Inhibition=100%−(Ratio−LC)/(HC−LC)*100%
HC: The average ratio of adding DMSO wells
LC: The average ratio of adding the top concentration of reference compounds wells
b) The “log (inhibitor) vs. response—Variable slope” model in GraphPad Prism 5.0 was used to fit the dose-response curve of each sample. The sample concentration (x) and its corresponding % Inhibition data (y) were substituted into the model. The sample concentration (abscissa) was x=log(x) transformed. The transformed xy was used as the sample curve to obtain the IC50.
c) Calculate the sample Ki according to the sample IC50 and red agonist Kd. S in the formula is the actual used concentration of red agonist.

T1 sequence (P43220 24-463): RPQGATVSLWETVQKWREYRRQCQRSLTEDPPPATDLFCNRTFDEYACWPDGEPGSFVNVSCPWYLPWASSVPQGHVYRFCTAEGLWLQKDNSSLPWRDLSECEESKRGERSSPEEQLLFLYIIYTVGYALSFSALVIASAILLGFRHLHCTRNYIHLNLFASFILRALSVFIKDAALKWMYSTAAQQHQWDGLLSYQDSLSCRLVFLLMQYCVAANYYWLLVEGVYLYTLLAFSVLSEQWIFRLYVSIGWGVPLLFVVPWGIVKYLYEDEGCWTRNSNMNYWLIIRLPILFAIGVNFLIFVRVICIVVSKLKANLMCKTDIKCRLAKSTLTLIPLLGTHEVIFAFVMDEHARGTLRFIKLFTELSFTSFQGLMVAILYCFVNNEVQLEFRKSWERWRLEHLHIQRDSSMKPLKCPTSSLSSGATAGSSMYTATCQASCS

Compound	pEC50 (GLP-1R [1])	pIC50 (GLP-1R [2])	pKi (GLP-1R [2])
O=C(Nc1cc(F)c2c(c1)C1(CC1)C(=O)N2)c1ccc2c(c1)nc(CN1CC=C(c3cccc(OCc4ccc(Cl)cc4F)n3)CC1)n2C[C@@H]1CCO1 [Compound 154]	9.35	5.80	6.04
CCn1cncc1Cn1c(Cc2c(F)cc(-c3cccc4c3O[C@@](C)(c3ccc(Cl)cn3)O4)cc2F)nc2cc(NC(=O)c3cc(F)c4[nH]nc(C)c4c3)ccc21 [Compound 411]	9.48	6.92	7.14
Cc1n[nH]c2c(F)cc(C(=O)Nc3ccc4c(c3)nc(CN3CCC(c5cccc6c5OC(C)(c5ccc(Cl)cc5F)O6)CC3)n4CC3CCO3)cc12 (stereo not shown) [Compound 340]	9.55	6.91	7.05
O=C(NCC(=O)N1CC(F)(F)C[C@H]1C(=O)O)c1ccc2c(c1)nc(CN1CCC(c3cccc(OCc4ccc(Cl)cc4F)n3)CC1)n2C[C@@H]1CCO1 [Compound 62]	9.29	5.58	5.88
Cc1n[nH]c2c(C)cc(NC(=O)c3ccc4c(c3)nc(CN3CC=C(c5cccc(OCc6ccc(C#N)c7cc(Cl)oc67)n5)CC3)n4C[C@@H]3CCO3)cc12 [Compound 354]	9.68	5.67	5.98
Cc1n[nH]c2c(F)cc(C(=O)Nc3ccc4c(c3)nc(Cc3c(F)cc(-c5cccc6c5O[C@](C)(c5ccc(Cl)cn5)O6)cc3F)n4CC3CCO3)cc12 (stereo partly shown) [Compound 387]	9.07	6.46	6.69
Cc1n[nH]c2c(F)cc(C(=O)Nc3ccc4c(c3)nc(CN3CC=C(c5cccc(OCc6ccc(Cl)cc6F)n5)CC3)n4C[C@@H]3CCO3)cc12 [Compound 196]	9.77	6.82	7.06
Cc1n[nH]c2ccc(NC(=O)c3ccc4c(c3)nc(CN3CC=C(c5cccc(OCc6ccc(Cl)cc6F)n5)CC3)n4C[C@@H]3CCO3)cc12 [Compound 3, (S)-2-((6-((4-chloro-2-fluorobenzyl)oxy)-3′,6′-dihydro-[2,4′-bipyridin]-1′(2′H)-yl)methyl)-N-(3-methyl-1H-indazol-5-yl)-1-(oxetan-2-ylmethyl)-1H-benzo[d]imidazole-5-carboxamide]	9.25	5.76	6.06
Cc1n[nH]c2c(C)cc(NC(=O)c3ccc4c(c3)nc(CN3CC=C(c5cccc6c5O[C@@](C)(c5ccc(Cl)cn5)O6)CC3)n4CC3CCO3)cc12 (stereo partly shown) [Compound 382]	10.00	6.16	6.47
Cc1n[nH]c2c(C)cc(NC(=O)c3ccc4c(c3)nc(CN3CCC(c5cccc(OCc6ccc(C#N)cc6F)n5)CC3)n4C[C@@H]3CCO3)cc12 [Compound 127]	9.82	5.90	6.13
O=C(Nc1ccc2c(c1)nc(CN1CC=C(c3cccc(OCc4ccc(Cl)cc4F)n3)CC1)n2C[C@@H]1CCO1)c1ccc2c(c1)C1(CC1)C(=O)N2 [Compound 203]	9.62	6.80	7.04
Cc1n[nH]c2c(C)cc(C(=O)Nc3ccc4c(c3)nc(CN3CC=C(c5cccc(OCc6ccc(C#N)cc6F)n5)CC3)n4C[C@@H]3CCO3)cc12 [Compound 229]	9.68	6.92	7.12
Cc1n[nH]c2c(C)cc(NC(=O)c3ccc4nc(CN5CC=C(c6cccc(OCc7ccc(C#N)cc7F)n6)CC5)n(CC5CCO5)c4c3)cc12 (stereo not shown) [Compound 276]	9.19	5.61	6.00
Cc1n[nH]c2c(C)cc(C(=O)Nc3ccc4c(c3)nc(CN3CC=C(c5cccc(OCc6ccc(Cl)cc6F)n5)CC3)n4C[C@@H]3CCO3)cc12 [Compound 197]	9.72	6.78	7.08
Cc1n[nH]c2c(C)cc(NC(=O)c3ccc4c(c3)nc(CN3CC=C(c5cccc6c5O[C@](C)(c5ccc(Cl)cn5)O6)CC3)n4CC3CCO3)cc12 (stereo partly shown) [Compound 383]	8.72	5.83	6.05
Cc1n[nH]c2c(F)cc(NC(=O)c3ccc4c(c3)nc(CN3CCC(c5cccc(OCc6ccc(C#N)cc6F)n5)CC3)n4C[C@@H]3CCO3)cc12 [Compound 126]	9.74	5.85	6.09
Cc1cc(NC(=O)c2ccc3c(c2)nc(CN2CCC(c4cccc(OCc5ccc(C#N)cc5F)n4)CC2)n3C[C@@H]2CCO2)cc2cn[nH]c12 [Compound 134]	9.07	5.74	6.04
Cc1n[nH]c2ccc(NC(=O)c3ccc4c(c3)nc(CN3CC=C(c5cccc(OCc6ccc(Cl)cn6)n5)CC3)n4C[C@@H]3CCO3)cc12 [Compound 145]	9.35	5.72	6.02
Cc1cc(NC(=O)c2ccc3c(c2)nc(CN2CCC(c4cccc(OCc5ccc(Cl)cc5F)n4)CC2)n3C[C@@H]2CCO2)cc2c1NC(=O)C21CC1 [Compound 105]	9.11	5.71	6.00

Compound	pEC50 (GLP-1R [1])	pIC50 (GLP-1R [2])	pKi (GLP-1R [2])
O=C(Nc1ccc2c(c1)nc(CN1CCC(c3cccc(OCc4ccc(Cl)cc4F)n3)CC1)n2C[C@@H]1CCO1)c1ccc2[nH]c(=O)[nH]c2c1 [Compound 85]	9.39	6.84	7.14
CCn1cncc1Cn1c(Cc2c(F)cc(-c3cccc(OCc4ccc(Cl)cn4)n3)cc2F)nc2cc(NC(=O)c3cc(F)c4[nH]nc(C)c4c3)ccc21 [Compound 407]	9.80	6.74	6.96
Cc1n[nH]c2c(C)cc(C(=O)Nc3ccc4c(c3)nc(CN3CC=C(c5cccc6c5O[C@@](C)(c5ccc(Cl)cc5F)O6)CC3)n4CC3CCO3)cc12 (stereo partly shown) [Compound 384]	10.10	6.96	7.17
O=C(NCCc1ccc(O)cc1)c1ccc2c(c1)nc(CN1CCC(c3cccc(OCc4ccc(Cl)cc4F)n3)CC1)n2C[C@@H]1CCO1 [Compound 15]	7.59	–	–
N#Cc1ccc(COc2cccc(C3=CCN(Cc4nc5cc(C(=O)Nc6cc(F)c7c(c6)C6(CC6)C(=O)N7)ccc5n4C[C@@H]4CCO4)CC3)n2)c(F)c1 [Compound 179]	9.12	–	–
C[C@]12C[C@@H](C(=O)O)N(C(=O)CNC(=O)c3ccc4c(c3)nc(CN3CCC(c5cccc(OCc6ccc(Cl)cc6F)n5)CC3)n4C[C@@H]3CCO3)[C@@]1(C)C2 [Compound 55]	8.74	–	–
O=C(NC1=Nc2nccn2C1)c1ccc2c(c1)nc(CN1CC=C(c3cccc(OCc4ccc(Cl)cc4F)n3)CC1)n2C[C@@H]1CCO1 [Compound 400]	6.98	–	–
COCCn1c(CN2CCC(c3cccc(OCc4ccc(Cl)cc4F)n3)CC2)nc2cc(NC(=O)c3cc(C)c4[nH]nc(C)c4c3)ccc21 [Compound 260]	8.99	–	–
Cc1n[nH]c2c(Cl)cc(C(=O)Nc3ccc4c(c3)nc(CN3CC=C(c5cccc6c5OC(C)(c5ccc(Cl)cc5F)O6)CC3)n4CC3CCO3)cc12 (stereo not shown) [Compound 308]	8.51	–	–
Cc1n[nH]c2ccc(NC(=O)c3ccc4c(n3)nc(CN3CC=C(c5cccc(OCc6ccc(Cl)cc6F)n5)CC3)n4C[C@@H]3CCO3)cc12 [Compound 136]	8.66	–	–
COCCn1c(CN2CCC(c3cccc(OCc4ccc(Cl)cc4F)n3)CC2)nc2cc(C(=O)NCc3ccc(O)c(O)c3)ccc21 [Compound 33]	7.21	–	–
O=C(Nc1ccc2c(c1)nc(CN1CC=C(c3cccc(OCc4ccc(Cl)cc4F)n3)CC1)n2C[C@@H]1CCO1)c1ccc2[nH]nc(C(F)(F)F)c2c1 [Compound 215]	8.68	–	–
COCCn1c(CN2CCC(c3cccc(OCc4ccc(Cl)cc4F)n3)CC2)nc2cc(C(=O)NCc3ccc4[nH]c(=O)[nH]c4c3)ccc21 [Compound 38]	7.75	–	–
CCn1cncc1Cn1c(Cc2c(F)cc(-c3cccc4c3O[C@](C)(c3ccc(Cl)cn3)O4)cc2F)nc2cc(NC(=O)c3cc(F)c4[nH]nc(C)c4c3)ccc21 [Compound 412]	8.51	–	–
O=C(Nc1nc2[nH]cnc2s1)c1ccc2c(c1)nc(CN1CC=C(c3cccc(OCc4ccc(Cl)cc4F)n3)CC1)n2C[C@@H]1CCO1 [Compound 403]	7.63	–	–
Cc1n[nH]c2c(C)cc(C(=O)Nc3ccc4c(c3)nc(CN3CC=C(c5cccc(OCc6ccc(C#N)c7cc(Cl)oc67)n5)CC3)n4C[C@@H]3CCO3)cc12 [Compound 357]	9.39	–	–
Cc1n[nH]c2ncc(NC(=O)c3ccc4c(c3)nc(CN3CC=C(c5cccc(OCc6ccc(Cl)cc6F)n5)CC3)n4C[C@@H]3CCO3)nc12 [Compound 190]	8.03	–	–
O=C(Nc1ccc2c(c1)nc(C1CC13CCN(c1cccc(OCc4ccc(Cl)cc4F)n1)CC3)n2C[C@@H]1CCO1)c1cc(F)c2c(c1)C1(CC1)C(=O)N2 (stereo partly shown) [Compound 254]	8.72	–	–
Cc1n[nH]c2c(C)cc(NC(=O)c3ccc4nc(CN5CC=C(c6cccc(OCc7ccc(Cl)cc7F)n6)CC5)n(CC5CCO5)c4c3)cc12 (stereo not shown) [Compound 264]	8.37	–	–
